Activity calls are given as the source filed them.
Key:
[1] = cells; type: functional, cell-based; conditions: HEK-CNG
[2] = target: Galanin receptor type 3 (Homo sapiens, UniProt O60755); assay: Fluorescence-based cell-based primary high throughput dose response assay to identify antagonists of the Galanin Receptor 3 (GalR3).; type: functional
[3] = target: Beta Lactamase (Pseudomonas aeruginosa, UniProt Q932Y6); assay: beta-lactamase reporter inhibitor potency, dose response, artefact control for TLR9-MyD88 binding inhibitor project, BLA reporter cells, FRET fluorescence (AID 588341); type: cell-based;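 also: cell based assay in CHO-K1 cells stably expressing beta-lactamase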
[4] = test system: CHO; assay: cytotoxicity in TLR9-MyD88 CHO cells, dose response, cytotoxicity control for TLR9-MyD88 binding inhibitor project, cell-based, luminescence (AID 588339); type: functional, hamster; conditions: Cricetulus griseus;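 also: CHO cells stably coexpressing TLR9 and MyD88 fusions from primary screen; compound exposure lasted 48 hours before viability readout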
[5] = target: T1, Sentrin-specific protease 8 (Homo sapiens, UniProt Q96LD8); type: functional
T1 sequence (Q96LD8 whole entry): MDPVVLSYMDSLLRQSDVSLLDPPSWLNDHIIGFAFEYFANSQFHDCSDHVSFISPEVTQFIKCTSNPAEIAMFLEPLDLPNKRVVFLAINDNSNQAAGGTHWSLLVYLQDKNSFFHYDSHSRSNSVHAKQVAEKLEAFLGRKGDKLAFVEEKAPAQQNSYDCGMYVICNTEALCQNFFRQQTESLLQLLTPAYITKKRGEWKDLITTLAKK

[6] = target: T2, Caspase-6 (Homo sapiens, UniProt P55212); assay: human caspase-6 inhibitors, dose response, biochemical, VEID-R110 fluorescence, cherry-pick (AID 720632)
T2 sequence (P55212 whole entry): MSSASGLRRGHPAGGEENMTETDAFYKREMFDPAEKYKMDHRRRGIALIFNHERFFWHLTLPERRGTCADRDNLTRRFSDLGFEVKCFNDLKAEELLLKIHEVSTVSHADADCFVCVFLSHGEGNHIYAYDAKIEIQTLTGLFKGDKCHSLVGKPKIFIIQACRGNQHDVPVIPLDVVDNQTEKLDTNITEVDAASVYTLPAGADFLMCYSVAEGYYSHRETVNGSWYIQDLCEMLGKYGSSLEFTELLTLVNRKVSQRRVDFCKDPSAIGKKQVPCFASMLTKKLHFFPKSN

[7] = target: T1, Sentrin-specific protease 8; type: functional; remark: listed apart in the source
[8] = target: T3, Apoptotic protease-activating factor 1 (Homo sapiens, UniProt O14727); type: functional
T3 sequence (O14727 whole entry): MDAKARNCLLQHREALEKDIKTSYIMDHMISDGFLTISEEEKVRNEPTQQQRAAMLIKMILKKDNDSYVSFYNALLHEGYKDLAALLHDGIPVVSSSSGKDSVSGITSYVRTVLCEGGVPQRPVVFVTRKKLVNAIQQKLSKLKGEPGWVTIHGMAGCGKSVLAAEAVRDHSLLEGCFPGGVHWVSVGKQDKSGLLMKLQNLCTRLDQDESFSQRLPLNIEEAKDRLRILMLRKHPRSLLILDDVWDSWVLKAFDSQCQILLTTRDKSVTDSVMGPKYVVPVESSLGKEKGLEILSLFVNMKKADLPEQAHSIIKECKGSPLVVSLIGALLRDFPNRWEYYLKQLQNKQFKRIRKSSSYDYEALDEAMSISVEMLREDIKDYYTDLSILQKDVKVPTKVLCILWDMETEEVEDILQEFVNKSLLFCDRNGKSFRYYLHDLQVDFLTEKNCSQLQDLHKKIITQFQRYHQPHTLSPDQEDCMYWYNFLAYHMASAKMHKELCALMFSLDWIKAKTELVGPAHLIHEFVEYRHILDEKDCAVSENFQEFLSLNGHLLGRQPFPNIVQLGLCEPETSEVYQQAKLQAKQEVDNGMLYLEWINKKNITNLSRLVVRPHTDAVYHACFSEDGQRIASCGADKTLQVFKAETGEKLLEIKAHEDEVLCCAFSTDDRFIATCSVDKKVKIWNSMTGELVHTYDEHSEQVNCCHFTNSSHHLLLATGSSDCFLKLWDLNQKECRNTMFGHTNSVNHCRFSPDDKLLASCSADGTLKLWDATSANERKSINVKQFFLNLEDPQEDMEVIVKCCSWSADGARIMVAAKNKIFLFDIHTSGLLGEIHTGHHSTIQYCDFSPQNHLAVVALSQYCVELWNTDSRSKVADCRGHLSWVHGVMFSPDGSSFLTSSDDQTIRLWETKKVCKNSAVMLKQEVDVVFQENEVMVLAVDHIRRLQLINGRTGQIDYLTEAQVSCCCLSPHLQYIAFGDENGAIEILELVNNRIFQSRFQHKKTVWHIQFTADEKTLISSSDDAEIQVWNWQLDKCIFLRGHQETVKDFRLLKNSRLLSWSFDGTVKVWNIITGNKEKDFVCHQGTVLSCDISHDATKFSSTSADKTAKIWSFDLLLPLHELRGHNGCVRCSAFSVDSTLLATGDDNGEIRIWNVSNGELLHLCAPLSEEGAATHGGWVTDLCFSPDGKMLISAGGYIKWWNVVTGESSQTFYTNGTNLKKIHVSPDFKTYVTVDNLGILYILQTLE

[9] = target: T4, Streptokinase A (Streptococcus pyogenes serotype M1, UniProt P10520); assay: S. pyogenes streptokinase expression inhibitors, potency, dose response, plasminogen activation absorbance, OD405 (AID 1914); type: functional, Streptococcus pyogenes M1 GAS;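 also: secreted streptokinase activity via plasminogen activation per viability signal from cell pellet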
T4 sequence (P10520 whole entry): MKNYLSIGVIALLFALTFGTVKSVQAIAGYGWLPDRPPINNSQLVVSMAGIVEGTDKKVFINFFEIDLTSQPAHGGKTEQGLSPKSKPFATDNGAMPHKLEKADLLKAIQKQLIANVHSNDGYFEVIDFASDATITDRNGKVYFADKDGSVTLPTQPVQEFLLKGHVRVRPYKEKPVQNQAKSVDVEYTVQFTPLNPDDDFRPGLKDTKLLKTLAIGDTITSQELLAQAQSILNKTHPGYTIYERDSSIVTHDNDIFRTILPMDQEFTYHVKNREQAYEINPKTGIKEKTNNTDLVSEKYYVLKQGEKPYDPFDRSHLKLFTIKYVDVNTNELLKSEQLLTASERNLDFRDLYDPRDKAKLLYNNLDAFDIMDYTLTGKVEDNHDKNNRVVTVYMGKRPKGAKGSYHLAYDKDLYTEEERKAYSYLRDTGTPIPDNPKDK

[10] = target: T5, Endoribonuclease toxin MazF (Escherichia coli K-12, UniProt P0AE70); assay: fluorescent RNA oligo signal without MazF, dose response, counter-screen for MazEF activator project, biochemical, fluorescence, single-stranded RNase substrate (AID 588502); type: functional
T5 sequence (P0AE70 whole entry): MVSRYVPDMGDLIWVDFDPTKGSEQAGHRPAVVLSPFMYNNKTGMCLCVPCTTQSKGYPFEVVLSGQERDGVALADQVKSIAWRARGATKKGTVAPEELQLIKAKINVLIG

[11] = target: T6, Zinc finger protein mex-5 (Caenorhabditis elegans, UniProt Q9XUB2); assay: MEX-5/TCR-2 RNA interaction inhibitors, dose response, biochemical, C. elegans, fluorescence polarization (AID 1960)
T6 sequence (Q9XUB2 whole entry): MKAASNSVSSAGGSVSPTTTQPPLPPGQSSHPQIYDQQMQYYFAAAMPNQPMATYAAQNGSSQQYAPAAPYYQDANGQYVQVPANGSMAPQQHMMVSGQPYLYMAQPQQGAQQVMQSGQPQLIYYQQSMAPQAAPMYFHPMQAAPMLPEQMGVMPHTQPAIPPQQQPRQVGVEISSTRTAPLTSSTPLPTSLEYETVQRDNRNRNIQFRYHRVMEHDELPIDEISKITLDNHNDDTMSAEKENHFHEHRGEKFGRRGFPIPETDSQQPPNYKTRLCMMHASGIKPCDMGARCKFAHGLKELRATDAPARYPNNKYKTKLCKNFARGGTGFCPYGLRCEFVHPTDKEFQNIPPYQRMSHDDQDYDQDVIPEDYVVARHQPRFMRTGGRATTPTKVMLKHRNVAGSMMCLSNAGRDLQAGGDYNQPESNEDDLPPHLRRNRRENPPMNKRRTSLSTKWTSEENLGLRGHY

[12] = target: T7, Corticotropin-releasing factor receptor 2/Corticotropin-releasing factor-binding protein (Homo sapiens, UniProt P24387+Q13324); assay: activators of CRF receptor 2 with binding protein – uHTS hits, confirmation (AID 602473); type: functional; conditions: read-out: EC50_Mean
T7 sequence (Q13324 whole entry): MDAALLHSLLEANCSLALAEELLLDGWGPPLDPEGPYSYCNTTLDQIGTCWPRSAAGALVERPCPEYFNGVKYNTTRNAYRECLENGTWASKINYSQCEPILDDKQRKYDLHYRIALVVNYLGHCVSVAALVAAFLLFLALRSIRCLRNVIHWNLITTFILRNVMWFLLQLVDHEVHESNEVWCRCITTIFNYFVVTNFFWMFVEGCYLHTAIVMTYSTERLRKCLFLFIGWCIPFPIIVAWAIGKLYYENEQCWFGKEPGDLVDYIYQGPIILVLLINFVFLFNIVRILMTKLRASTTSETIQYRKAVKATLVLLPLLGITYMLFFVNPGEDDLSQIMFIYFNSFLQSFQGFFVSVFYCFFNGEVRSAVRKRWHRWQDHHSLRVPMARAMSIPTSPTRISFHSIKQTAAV
T7 sequence (P24387 whole entry): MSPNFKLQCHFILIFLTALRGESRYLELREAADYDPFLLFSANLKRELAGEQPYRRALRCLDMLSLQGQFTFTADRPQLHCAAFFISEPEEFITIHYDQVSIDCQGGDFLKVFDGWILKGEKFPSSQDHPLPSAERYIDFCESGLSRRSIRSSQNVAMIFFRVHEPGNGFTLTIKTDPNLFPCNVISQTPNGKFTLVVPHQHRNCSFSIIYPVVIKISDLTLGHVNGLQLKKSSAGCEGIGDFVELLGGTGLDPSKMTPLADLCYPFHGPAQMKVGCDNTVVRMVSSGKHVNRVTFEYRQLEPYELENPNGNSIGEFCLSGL

[13] = target: T8, RNA-binding protein pos-1 (Caenorhabditis elegans, UniProt G5EF15); assay: inhibitors of POS-1/mex-3 RNA binding, dose response, biochemical, fluorescence polarization (AID 1964);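 also: purified POS-1 fused to maltose binding protein made in E. coli; potency of compounds blocking POS-1 binding to fluorescent RNA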
T8 sequence (G5EF15 whole entry): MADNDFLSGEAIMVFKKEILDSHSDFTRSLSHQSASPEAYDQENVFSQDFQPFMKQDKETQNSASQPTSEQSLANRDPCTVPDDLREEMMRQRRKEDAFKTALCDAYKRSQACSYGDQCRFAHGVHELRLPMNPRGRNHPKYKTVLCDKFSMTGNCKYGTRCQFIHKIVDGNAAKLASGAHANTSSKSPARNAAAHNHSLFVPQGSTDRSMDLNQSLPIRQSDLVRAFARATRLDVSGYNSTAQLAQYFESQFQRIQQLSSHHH

[14] = target: T5, Endoribonuclease toxin MazF; assay: MazF toxin RNase activators, dose response, biochemical, fluorescence, single-stranded RNA substrate, uHTS hits (AID 588481); type: functional
[15] = target: Hepatocyte nuclear factor 4-alpha (Homo sapiens, UniProt P41235); type: functional, cell-based;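 also: biochemical luminescence-based dose-response counterscreen measuring inhibition of HNF4 dimerization, run alongside a screen for blockers of ABHD5–perilipin-5 interaction; split luciferase complementation of HNF4 fusion proteins in cell lysate measuring dimerization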
[16] = CEM21 lymphoblast cell cytotoxicity, dose response, cytotoxicity control for viral fusion inhibitor project, CellTiter-Glo luminescence, cherry-picked (AID 652042); type: functional, cell-based;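 also: potency for signal decrease meaning cytotoxicity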
[17] = ZM109 Env clade C HIV-1 fusion inhibitors, dose response, HeLa effector, CEM target cells, luciferase, cherry-pick (AID 652058); type: functional, cell-based
[18] = test system: A549; assay: A549 cell toxicity, dose response, cytotoxicity control, plate reader, cherry-pick samples (AID 687028); type: functional, cell-based; conditions: Homo sapiens
[19] = cells; type: functional, cell-based
[20] = cells; type: functional, cell-based; remark: listed apart in the source
[21] = cytotoxicity in OVCAR8 ovarian cancer cells, dose response, PAX8 project, cell-based, plate reader, dry powder samples (AID 743197); type: functional; conditions: OVCAR-8
[22] = P. falciparum Dd2 growth inhibitors, dose response, SYBR Green, dry powder samples, set 9 (AID 1159568); type: functional, cell-based
[23] = target: Paired box protein Pax-8 (Homo sapiens, UniProt Q06710); assay: inhibitors of PAX8-driven TPO luciferase reporter, dose response, RMG-I cells, cherry-pick (AID 687027); type: functional, cell-based;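 also: luciferase reporter driven by Pax8 target thyroperoxidase promoter measured by SteadyGlo luminescence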
Chain of Paired box protein Pax-8 (Q06710 whole entry): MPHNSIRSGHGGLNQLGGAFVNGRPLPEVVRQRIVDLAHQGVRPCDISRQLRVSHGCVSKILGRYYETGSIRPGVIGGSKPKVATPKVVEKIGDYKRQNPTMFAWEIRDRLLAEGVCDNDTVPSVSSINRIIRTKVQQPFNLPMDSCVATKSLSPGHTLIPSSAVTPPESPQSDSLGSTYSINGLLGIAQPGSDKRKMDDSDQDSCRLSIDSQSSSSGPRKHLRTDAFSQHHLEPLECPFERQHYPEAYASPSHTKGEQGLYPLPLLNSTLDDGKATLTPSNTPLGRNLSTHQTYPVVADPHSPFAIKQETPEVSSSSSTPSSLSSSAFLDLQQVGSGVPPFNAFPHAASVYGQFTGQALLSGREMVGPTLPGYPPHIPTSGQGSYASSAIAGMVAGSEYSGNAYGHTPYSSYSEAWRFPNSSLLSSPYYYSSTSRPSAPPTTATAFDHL

Chain of Hepatocyte nuclear factor 4-alpha (P41235 whole entry, the tested form may be a part): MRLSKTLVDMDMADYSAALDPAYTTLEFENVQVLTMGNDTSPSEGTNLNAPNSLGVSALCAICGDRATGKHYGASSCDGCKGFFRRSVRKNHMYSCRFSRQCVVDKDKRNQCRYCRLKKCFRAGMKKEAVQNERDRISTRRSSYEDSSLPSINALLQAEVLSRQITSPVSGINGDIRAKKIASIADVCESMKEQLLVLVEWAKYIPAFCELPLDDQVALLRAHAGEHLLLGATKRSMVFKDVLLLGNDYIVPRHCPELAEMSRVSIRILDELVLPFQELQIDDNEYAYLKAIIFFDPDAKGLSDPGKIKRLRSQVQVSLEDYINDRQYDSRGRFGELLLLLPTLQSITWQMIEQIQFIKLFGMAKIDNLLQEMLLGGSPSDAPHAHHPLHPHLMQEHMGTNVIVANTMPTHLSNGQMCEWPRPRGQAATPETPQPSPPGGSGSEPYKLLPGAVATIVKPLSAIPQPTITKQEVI
Chain of Galanin receptor type 3 (O60755 whole entry): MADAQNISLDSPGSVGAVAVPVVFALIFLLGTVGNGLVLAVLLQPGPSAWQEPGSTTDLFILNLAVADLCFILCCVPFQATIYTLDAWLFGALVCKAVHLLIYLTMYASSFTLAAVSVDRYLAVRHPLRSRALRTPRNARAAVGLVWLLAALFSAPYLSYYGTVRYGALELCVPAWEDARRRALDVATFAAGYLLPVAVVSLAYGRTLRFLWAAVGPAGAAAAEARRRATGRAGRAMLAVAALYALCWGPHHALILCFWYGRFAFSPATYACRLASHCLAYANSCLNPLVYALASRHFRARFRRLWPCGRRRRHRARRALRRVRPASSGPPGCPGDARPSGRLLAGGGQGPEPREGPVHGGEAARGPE
Chain of Beta Lactamase (Q932Y6 whole entry, the tested form may be a part): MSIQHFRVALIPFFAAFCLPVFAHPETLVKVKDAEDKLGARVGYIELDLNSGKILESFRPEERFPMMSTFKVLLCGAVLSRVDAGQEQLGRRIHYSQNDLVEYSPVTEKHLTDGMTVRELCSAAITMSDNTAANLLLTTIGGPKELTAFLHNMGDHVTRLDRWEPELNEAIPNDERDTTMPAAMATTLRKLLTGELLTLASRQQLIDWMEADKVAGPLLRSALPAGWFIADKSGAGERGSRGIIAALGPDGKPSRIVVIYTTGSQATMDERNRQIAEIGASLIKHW

With `CCC(CC)C(=O)Nc1ccc([N+](=O)[O-])cn1` the EC50 [1] was > 29.9 µM (inactive) and the IC50 [2] was > 29.9 µM (inactive).

In the case of `N#C/C(=C/c1ccc(-c2ccc(S(N)(=O)=O)cc2)o1)c1nc2ccccc2s1`, the IC50 [3] is reported as 5.09 µM (active) and the IC50 [4] is reported as 22.1 µM (inactive).

In the case of `Cc1cccc(N2C(=O)Cc3ccccc3C2=O)c1`, the IC50 [5] is reported as 5.17 µM (active), the AC50 [6] is reported as 22.7 µM (active) and the IC50 [7] is reported as > 100 µM (inactive).

With `CCCCC[n+]1ccn(C2=C([N-]S(=O)(=O)c3ccc(Br)cc3)C(=O)c3ccccc3C2=O)c1` the IC50 [8] was 9.66 µM (active) and the EC50 [9] was > 150 µM (not active).

With `COc1ccc(N/C=C2/C(=O)N(c3cccc(C)n3)C(=O)c3ccccc32)c(OC)c1` the EC50 [10] was 14.5 µM (active), the EC50 [11] was 55.4 µM (inconclusive) and the EC50 [12] was 8.64 µM (active). The EC50 [13] was > 300 µM (not active) and the EC50 [14] was > 99 µM (inactive).

With `CC(C)(C)CN1CCN(Cc2nc(-c3ccc(F)cc3)cs2)CC1CCO` (configuration not stated) the EC50 [1] was > 29.9 µM (inactive) and the IC50 [2] was 2.83 µM (active).

In the case of `N#Cc1ccccc1OCc1cn(CC(=O)c2ccc(O)cc2)nn1`, the IC50 [15] is reported as 6.36 µM (active).

With `C[C@@H]1CN([C@H](C)CO)S(=O)(=O)c2ccc(C#Cc3cccc(F)c3)cc2O[C@@H]1CN(C)C(=O)CN1CCOCC1` the AC50 [16] was 40.3 µM (active) and the AC50 [17] was 0.899 µM (active).

In the case of `Cc1cccnc1C(NC(=O)C1CCN(CCCc2ccccc2)CC1)c1ccc(Cl)cc1` (configuration not stated), the AC50 [18] is reported as 27.9 µM (active).

With `O=C(O)C1C2CCC(C2)C1C(=O)NCCc1ccccc1` (configuration not stated) the IC50 [19] was > 29.9 µM (inactive) and the EC50 [20] was > 29.9 µM (inactive).

For `CC(C)(C)NC(=O)C(c1ccc(C#N)cc1)n1c(=O)c(-c2ccco2)nc2ccccc21` (configuration not stated), the IC50 [15] was 1.47 µM (active).

In the case of `CS(=O)(=O)N1C[C@@H]2N[C@H](C1)[C@@H]2c1ccc(-c2ccccc2)cc1`, the AC50 [18] is reported as 17.7 µM (active), the AC50 [21] is reported as > 60 µM (inactive) and the AC50 [22] is reported as 9.14 µM (active). The AC50 [23] was 4.42 µM (active).

— ChEMBL document CHEMBL1201862, “PubChem BioAssay data set” (2004)
